This is an account of results in ChEMBL document CHEMBL1140250, “6-Aryl-4-methylsulfanyl-2H-pyran-2-one-3-carbonitriles as PPAR-gamma activators” (Bioorg Med Chem Lett, 2005).

Assay type in all cases: functional
Experiment [1] concerns the target T1, Peroxisome proliferator-activated receptor gamma (Homo sapiens) (UniProt P37231).
T1 sequence (whole entry): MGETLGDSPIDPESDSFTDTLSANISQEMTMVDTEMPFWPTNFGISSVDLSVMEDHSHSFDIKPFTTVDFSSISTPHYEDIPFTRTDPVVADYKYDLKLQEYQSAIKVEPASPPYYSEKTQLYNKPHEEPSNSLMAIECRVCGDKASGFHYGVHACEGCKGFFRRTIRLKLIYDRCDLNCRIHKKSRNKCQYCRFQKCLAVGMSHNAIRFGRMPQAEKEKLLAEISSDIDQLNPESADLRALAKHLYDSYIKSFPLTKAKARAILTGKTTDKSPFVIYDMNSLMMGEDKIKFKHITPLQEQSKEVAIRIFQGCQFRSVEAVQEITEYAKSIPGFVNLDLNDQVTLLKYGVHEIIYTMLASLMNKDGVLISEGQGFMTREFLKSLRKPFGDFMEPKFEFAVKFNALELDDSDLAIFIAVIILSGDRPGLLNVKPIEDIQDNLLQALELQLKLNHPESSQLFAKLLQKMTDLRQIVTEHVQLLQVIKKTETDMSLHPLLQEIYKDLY
Kind of experiment: In vitro agonist activity against human PPAR-gamma in transactivation assay at 10 nM.

The target of experiment [2] is T1, Peroxisome proliferator-activated receptor gamma (Homo sapiens). Kind of experiment: In vitro agonist activity against human PPAR-gamma in transactivation assay at 100 nM.
Experiment [3] shares this target. Kind of experiment: In vitro agonist activity against human PPAR-gamma receptor in transactivation assay at 1000 nM.

With `COC(=O)c1c(SC)cc(-c2ccc(OCCSC)cc2)oc1=O`, the figures for the Fold activation in experiment [1], in experiment [2] and in experiment [3] were 9, 13 and 44, respectively.

With `CSc1cc(-c2ccc(OCN3CCOCC3)cc2)oc(=O)c1C#N`, the Fold activation came out at 3 in experiment [1], 4 in experiment [2] and 5 in experiment [3].

Regarding `CSCCOc1ccc(-c2cc(SC)c(C#N)c(=O)o2)cc1`, the Fold activation in experiment [1] worked out at 12; in experiment [2], 22; in experiment [3], 60.

With `CSc1cc(-c2ccc(OCCSc3ccccc3)cc2)oc(=O)c1C#N`, the Fold activation was determined as 3 in experiment [1], 5 in experiment [2] and 14 in experiment [3].

Take `CN(CCOc1ccc(CC2SC(=O)NC2=O)cc1)c1ccccn1` (centres undefined): the values for the Fold activation in experiment [1], in experiment [2] and in experiment [3] were 9, 28 and 176, respectively.

As to `CSc1cc(-c2ccc(OCCN(C)C)cc2)oc(=O)c1C#N`, the Fold activation in experiment [1] came to 4; in experiment [2], 6; in experiment [3] it was 7.

Consider `C[S+]([O-])CCOc1ccc(-c2cc([S+](C)[O-])c(C#N)c(=O)o2)cc1` (centres undefined), for which the Fold activation in experiment [1] was found to be 9; in experiment [2], 14; in experiment [3], 27.

On to `CSc1cc(-c2ccc(OCCN3CCCCC3)cc2)oc(=O)c1C#N`, for which the Fold activation turned out to be 3 in experiment [1], 2 in experiment [2] and 16 in experiment [3].

In the case of `CSc1cc(-c2ccc(OCCN(Cc3ccccc3)SC)cc2)oc(=O)c1C#N`, the Fold activation in experiment [1] was 4; in experiment [2], 6; in experiment [3], 7.

As to `COC(=O)c1c(SC)cc(-c2ccc(OCCN3CCCCC3)cc2)oc1=O`, the Fold activation amounted to 3 in experiment [1], 3 in experiment [2] and 17 in experiment [3].

On to `CSc1cc(-c2ccc(OCCc3nccc4c3CCCC4)cc2)oc(=O)c1C#N`, for which the Fold activation in experiment [1] amounted to 4; in experiment [2], 5; in experiment [3], 19.

Consider `CSc1cc(-c2ccc(OCCN(C)Cc3ccccc3)cc2)oc(=O)c1C#N`, for which the results for the Fold activation in experiment [1], in experiment [2] and in experiment [3] were 5, 4 and 7, respectively.

In the case of `CCSCCOc1ccc(-c2cc(SCC)c(C#N)c(=O)o2)cc1`, the Fold activation in experiment [1] turned out to be 7; in experiment [2], 11; in experiment [3], 30.
